Among the test systems are MALME-3M melanoma; HCT-116 colon; ACHN renal; U251 CNS; OVCAR-5 ovarian; SNB-19 CNS; HOP-62 NSCLC; SF-295 CNS; SNB-75 CNS; UACC-257 melanoma; UACC-62 melanoma; COLO 205 colon; CAKI-1 renal; RXF 393 renal; SK-MEL-28 melanoma; EKVX NSCLC; OVCAR-3 ovarian; SF-268 CNS; M14 melanoma.
Common to all, as to experiment: DTP human tumour cell line panel, 48 h

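Briefly, cells in 96-well plates were exposed to five compound concentrations for 48 h, and endpoints were estimated by linear interpolation. Definition used: TGI = concentration required for complete inhibition of growth.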 Some results are limits rather than exact numbers.

A word on the TGI: it is the concentration giving total growth inhibition. Consider `CCOC(=O)N1CC2(C(=O)OC)C=CC1C(C(=O)OC)C2` (configuration not stated), for which the TGI with MALME-3M melanoma, with HCT-116 colon, with ACHN renal, in the experiment on U251 CNS, with OVCAR-5 ovarian and in the experiment on SNB-19 CNS was more than 100 µM in each case. Further, the total growth inhibition concentration (TGI) with HOP-62 NSCLC, in the experiment on SF-295 CNS, with SNB-75 CNS, in the experiment with UACC-257 melanoma, in the experiment with UACC-62 melanoma and in the experiment on COLO 205 colon was more than 100 µM throughout. Moreover, the TGI with CAKI-1 renal, with RXF 393 renal, in the experiment with SK-MEL-28 melanoma, in the experiment on EKVX NSCLC, with OVCAR-3 ovarian and in the experiment on SF-268 CNS was more than 100 µM throughout. This molecule came in with a TGI in the experiment on M14 melanoma of more than 100 µM.
In the case of `COc1ccc(-c2nc(N)c(C#N)c3c2CCSc2ccc(C)cc2-3)cc1OC`, the total growth inhibition concentration (TGI) with MALME-3M melanoma was more than 100 µM; in the experiment with HCT-116 colon, 30.7 µM; in the experiment with ACHN renal, more than 73.9 µM; in the experiment with U251 CNS, more than 100 µM; in the experiment with OVCAR-5 ovarian it was more than 100 µM; in the experiment with SNB-19 CNS it was more than 83.5 µM. For the same molecule, the TGI in the experiment with HOP-62 NSCLC was more than 100 µM; in the experiment with SF-295 CNS, more than 100 µM; with SNB-75 CNS, 71.3 µM; in the experiment on UACC-257 melanoma it was more than 76.2 µM; in the experiment on UACC-62 melanoma, 47.1 µM; with COLO 205 colon, 26.6 µM. Also, the TGI is more than 70.5 µM with CAKI-1 renal; more than 100 µM with RXF 393 renal; more than 81.8 µM in the experiment with SK-MEL-28 melanoma; more than 85.3 µM with EKVX NSCLC; more than 100 µM with OVCAR-3 ovarian; 93.9 µM in the experiment on SF-268 CNS. Also, in the experiment on M14 melanoma, the TGI was more than 100 µM.
As to `Cn1c(=O)oc2cc(C(=S)N3CCC(Cc4ccccc4)CC3)ccc21`, the concentration for total growth inhibition (TGI) with MALME-3M melanoma, in the experiment with HCT-116 colon, with ACHN renal, with U251 CNS, in the experiment on OVCAR-5 ovarian and with SNB-19 CNS was more than 100 µM each time. For the same molecule, the TGI with HOP-62 NSCLC, in the experiment on SF-295 CNS, in the experiment on SNB-75 CNS, in the experiment with UACC-257 melanoma, with UACC-62 melanoma and with COLO 205 colon was more than 100 µM each time. Besides, the TGI in the experiment on CAKI-1 renal, in the experiment on RXF 393 renal, with SK-MEL-28 melanoma, with EKVX NSCLC, in the experiment with OVCAR-3 ovarian and in the experiment on SF-268 CNS was more than 100 µM throughout. In addition, the TGI in the experiment with M14 melanoma was more than 100 µM.
For `COc1ccc(C(=O)/C=C2\c3ccccc3C(=O)N2C)cc1`, the TGI in the experiment on MALME-3M melanoma, in the experiment on HCT-116 colon, in the experiment on ACHN renal, in the experiment on U251 CNS, in the experiment on OVCAR-5 ovarian and in the experiment on SNB-19 CNS was more than 100 µM throughout. Further, the TGI in the experiment with HOP-62 NSCLC, in the experiment on SF-295 CNS, in the experiment on SNB-75 CNS, in the experiment with UACC-257 melanoma, in the experiment on UACC-62 melanoma and with COLO 205 colon was more than 100 µM in each case. The concentration for total growth inhibition (TGI) with CAKI-1 renal was more than 100 µM; with RXF 393 renal, 82.8 µM; in the experiment with SK-MEL-28 melanoma, more than 100 µM; in the experiment on EKVX NSCLC it was more than 100 µM; in the experiment on OVCAR-3 ovarian it was more than 100 µM; with SF-268 CNS, more than 100 µM. In the experiment on M14 melanoma, this molecule had a total growth inhibition concentration (TGI) of more than 100 µM.
Take `Cc1ccc(-c2c(C#N)c(-c3ccc([N+](=O)[O-])cc3)c(C#N)c(=O)n2NS(=O)(=O)c2ccc(C)cc2)cc1`: the concentration for total growth inhibition (TGI) in the experiment on MALME-3M melanoma, with HCT-116 colon, in the experiment on ACHN renal, in the experiment on U251 CNS, in the experiment with OVCAR-5 ovarian and in the experiment with SNB-19 CNS was more than 100 µM in each case. The TGI with HOP-62 NSCLC, with SF-295 CNS, in the experiment on SNB-75 CNS, in the experiment with UACC-257 melanoma, in the experiment on UACC-62 melanoma and with COLO 205 colon was more than 100 µM each time. Moreover, the TGI with CAKI-1 renal, in the experiment on RXF 393 renal, in the experiment on SK-MEL-28 melanoma, in the experiment with EKVX NSCLC, with OVCAR-3 ovarian and with SF-268 CNS was more than 100 µM in each case. This molecule also returned a concentration for total growth inhibition (TGI) in the experiment with M14 melanoma of more than 100 µM.
On to `NCCCCC(N)C(=O)N1CCN(c2nc(N3CCCC3)c3nc(Cl)c(NCc4ccccc4)nc3n2)CC1` (configuration not stated), for which the TGI in the experiment on MALME-3M melanoma amounted to 43.5 µM; in the experiment with HCT-116 colon, 32.1 µM; with ACHN renal, 38.1 µM; in the experiment on U251 CNS, 36.5 µM; in the experiment with OVCAR-5 ovarian, 33.9 µM; with SNB-19 CNS, 33.2 µM. For the same molecule, the total growth inhibition concentration (TGI) stood at 29.3 µM with HOP-62 NSCLC; 35.4 µM in the experiment on SF-295 CNS; 32.9 µM in the experiment on SNB-75 CNS; 35.5 µM in the experiment on UACC-257 melanoma; 36.7 µM with UACC-62 melanoma; 33.1 µM with COLO 205 colon. The TGI with CAKI-1 renal came to 91.8 µM; with RXF 393 renal, 34 µM; in the experiment on SK-MEL-28 melanoma it was 40.5 µM; in the experiment with EKVX NSCLC, 36 µM; in the experiment with OVCAR-3 ovarian it was 36.9 µM; in the experiment with SF-268 CNS, 45.2 µM. In the experiment with M14 melanoma, this molecule gave a total growth inhibition concentration (TGI) of 33.9 µM.
For `Nc1ccn([C@H]2CO[C@@H](CO)O2)c(=O)n1`, the total growth inhibition concentration (TGI) in the experiment on MALME-3M melanoma is more than 100 µM; with HCT-116 colon, more than 100 µM; in the experiment on ACHN renal it was 7.87 µM; in the experiment on U251 CNS, more than 100 µM; with OVCAR-5 ovarian, more than 100 µM; in the experiment with SNB-19 CNS, more than 100 µM. Also, the TGI with HOP-62 NSCLC is more than 57.9 µM; in the experiment on SF-295 CNS, more than 100 µM; in the experiment with SNB-75 CNS it was more than 100 µM; in the experiment on UACC-257 melanoma, more than 100 µM; with UACC-62 melanoma, more than 46.4 µM; in the experiment on COLO 205 colon it was more than 100 µM. For the same molecule, the TGI in the experiment on CAKI-1 renal is 23 µM; with RXF 393 renal, more than 83.3 µM; in the experiment on SK-MEL-28 melanoma it was more than 100 µM; in the experiment on EKVX NSCLC it was more than 100 µM; in the experiment with OVCAR-3 ovarian, more than 100 µM; in the experiment on SF-268 CNS it was more than 100 µM. Besides, the total growth inhibition concentration (TGI) with M14 melanoma turned out to be 19.1 µM.
Regarding `CN(C)C(=S)N/N=C\C(=N/NC(=S)N(C)C)c1ccccc1`, the TGI in the experiment on MALME-3M melanoma was more than 57.5 µM; in the experiment with HCT-116 colon it was more than 46.5 µM; in the experiment with ACHN renal, more than 100 µM; with U251 CNS, more than 100 µM; with OVCAR-5 ovarian, more than 100 µM; with SNB-19 CNS it was more than 100 µM. In addition, the concentration for total growth inhibition (TGI) is more than 100 µM in the experiment with HOP-62 NSCLC; more than 100 µM in the experiment with SF-295 CNS; more than 53.7 µM in the experiment on SNB-75 CNS; more than 100 µM with UACC-257 melanoma; more than 100 µM in the experiment with UACC-62 melanoma; more than 100 µM in the experiment with COLO 205 colon. Besides, the TGI in the experiment on CAKI-1 renal is more than 100 µM; in the experiment with RXF 393 renal it was more than 27.8 µM; in the experiment on SK-MEL-28 melanoma, more than 100 µM; in the experiment with EKVX NSCLC, more than 100 µM; in the experiment on OVCAR-3 ovarian, more than 23.4 µM; with SF-268 CNS, more than 72.3 µM. Further, the concentration for total growth inhibition (TGI) in the experiment with M14 melanoma was more than 100 µM.

(Values after PubChem BioAssay (NCI).)
